Experimental data: paper PMC10762078, “Role of UPF1-LIN28A interaction during early differentiation of pluripotent stem cells” (Nature Communications, 2024)
Ends that are not written are not given here.

Assays:
[1] = tested on: nonsense-mediated mRNA decay (NMD); assay: NMD reporter (Gl, GPx1) mRNA by RT-qPCR in LIN28A-expressing HeLa cells with CPP-peptides (Fig. 5c); type: cell-based; settings: for relative Gl mRNA level / relative GPx1 mRNA level: normalised to MUP
Procedure: Fig. 5 CPP-conjugated peptide inhibits UPF1-LIN28A interaction. a Schematic representation of designated CPP-conjugated peptides. The amino acid sequences and positions of each peptide on UPF1 are indicated. CPP-P1 and -P2 served as negative controls. CPP-FITC was used to evaluate cell-penetrating ability in cells. b 293T cell lysates co-transfected with pCMV-MYC-UPF1 and pGEX-GST-LIN28A and incubated with the indicated CPP-conjugated peptides were employed for GST pull-down. c Relative levels of NMD reporters were measured in LIN28A-expressing HeLa cells incubated with the indicated CPP-conjugated peptides. mRNA level was normalised to that of MUP mRNA. d PLA was performed using LIN28A-overexpressing HeLa cells and hPSCs in the presence of indicated peptides. Red: fluorophore in amplified DNA circle, and Blue: DAPI stained nucleus. Scale bars, 50 μm. Unpaired Student’s t-test was used. Data are presented as mean values ± SEM. All statistical test used were two-sided. The minimum number of independent biological replicate experiments was b–d n = 3. The experiments were conducted three times, each iteration producing consistent results.
(§1) For CPP-conjugated peptide delivery, HeLa, 293T, and PA-1 cells were incubated with CPP-conjugated peptides or CPP-FITC at 2 μM in DMEM with 10% FBS for 12 h a day before cell harvest. hPSCs were treated with CPP-conjugated peptides at 10 μM in mTeSR Plus Medium, and the peptide-containing medium was changed every day over 10 days. The ROCK inhibitor (Tocris Bioscience, Y-27632) treated-hPSCs were dissociated into single cells using Accutase (Merck, SCR005) and differentiated into ectoderm, mesoderm, and endoderm using the STEMdiff Trilineage Differentiation Kit ([…] Technologies, 05230) following the manufacturer’s protocol. Differentiated cells treated with CPP-conjugated peptides were analysed at 0, 3, and 5 days for ectoderm and endoderm, and at 0, 3, and 4 days for mesoderm.
Total RNA purification and RT-qPCR
Total RNA was extracted using TRIzol reagent (Invitrogen) according to the manufacturer’s protocol. After extraction, RNA was incubated with RQ1 RNase-Free DNase (Promega) to remove the exogenous and endogenous DNA.
(§2) cDNA was synthesised using RevertAid Reverse Transcriptase (Thermo Fisher Scientific, EP0441) with synthesised random hexamer (Macrogen) for total RNA or stem-loop primers for miRNA. For RT-qPCR reactions, the SensiFAST SYBR No-ROX kit (Meridian Bioscience) was used according to the manufacturer’s protocol. All data analysis and visualisation were conducted using R 3.6.1 [www.r-project.org] or GraphPad Prism 10. RT primers for miRNA and RT-qPCR primer sequences are provided in Supplementary Data 6.
Fold change in NMD efficiency represents the ratio of test NMD (PTC-containing transcript) to control NMD (PTC-free transcript), where NMD is the relative abundance of PTC-containing mRNA divided by the relative abundance of PTC-free mRNA. The abundance of MUP mRNA was used as the reference.

[2] = tested on: CHA15 cells; assay: RT-qPCR of indicated transcripts (NMD targets, pluripotency markers) in CPP-peptide-treated CHA15 cells (Supplementary Fig. 6d); type: cell-based, human; settings: Fig. s6d; for DLK1 mRNA level, mean / FRZB mRNA level, mean / GLI2 mRNA level, mean / MAPK7 mRNA level, mean / NANOG mRNA level, mean / PDZD4 mRNA level, mean / POU5F1 mRNA level, mean / SIX3 mRNA level, mean / SLC7A5 mRNA level, mean / SNAP25 mRNA level, mean / SOX2 mRNA level, mean / TRMT61A mRNA level, mean / WLS mRNA level, mean / NNAT mRNA level, mean / SERPINB9 mRNA level, mean: mean of 3 replicates
Procedure: as §1, with “mesoderm. […]” for “mesoderm.”
as §2, with “Data 6. […]” for “Data 6.”
Scale bars, 100 μm . d (Corresponding to Fig. 6d) RT -qPCR was perform ed to evaluate the level of indicated transcripts upon the indicated peptide treatm ent in CHA15 cells. e T ranscriptom e analysis was perf orm ed using signif icantly changed transcripts (p < 0.05) f rom siLIN28A or siControl in the indicated CPP-peptide treated CHA15 cells. […]
5p and m iR-16- 5p was shown as CDF graphs. T he relative level of m RNA was norm alised to that of U6 snRNA in (c, d, and f). K–S tests were used for e and f. Unpaired Student’s t-test was used for c , d, and f . * p < 0.05, ** p < 0.01, *** p < 0.001. Exact p -values were provided in Source data. Data are presented as m ean values ± SEM. All statistical test used were two- sided. T he m inim um num ber of independent biological replicate experim ents was a and e n = 2, b–d and f n = 3. T he experim ents were conducted three tim es, each iteration producing consistent results.

[3] = LIN28A-expressing HeLa, CPP-peptide, replicate set1
[4] = LIN28A-expressing HeLa, CPP-peptide, replicate set2
[5] = LIN28A-expressing HeLa, CPP-peptide, replicate set3
[6] = unpaired t test, two-tailed, df=4

N-QKLDQKELQLEPM-C [P1, reference compound]
relative Gl mRNA level ([1]; FLAG control (no LIN28A) HeLa, CPP-peptide, replicate set2): 1.21 | relative GPx1 mRNA level ([1]; FLAG control (no LIN28A) HeLa, CPP-peptide, replicate set3): 1.026 | relative GPx1 mRNA level [1, 3]: 2.435 | relative Gl mRNA level [1, 3]: 3.179 | relative GPx1 mRNA level [1, 4]: 2.54 | relative Gl mRNA level [1, 4]: 5.571 | relative GPx1 mRNA level [1, 5]: 2.254 | relative Gl mRNA level [1, 5]: 4.729 | DLK1 mRNA level, mean [2]: 1 | FRZB mRNA level, mean [2]: 1 | GLI2 mRNA level, mean [2]: 1 | MAPK7 mRNA level, mean [2]: 1 | NANOG mRNA level, mean [2]: 1 | PDZD4 mRNA level, mean [2]: 1 | POU5F1 mRNA level, mean [2]: 1 | SIX3 mRNA level, mean [2]: 1 | SLC7A5 mRNA level, mean [2]: 1 | SNAP25 mRNA level, mean [2]: 1 | SOX2 mRNA level, mean [2]: 1 | TRMT61A mRNA level, mean [2]: 1 | WLS mRNA level, mean [2]: 1

KKKWCRKKKSSADEKRYRALKRTAERELLMNA [CPP-P8, CPP conjugated to P8]
increased Gl Ter and GPx1 Ter levels caused by LIN28A ([1]; LIN28A-expressing HeLa, 2 μM, 12 h): efficiently reversed by CPP-P8

KKKWCRKKKSSADEKRYRALKRTAERELLMNA [P8]
relative GPx1 mRNA level [1, 3]: 1.006 | relative Gl mRNA level [1, 3]: 1.305 | relative GPx1 mRNA level [1, 4]: 1.229 | relative Gl mRNA level [1, 4]: 0.7968 | relative GPx1 mRNA level [1, 5]: 0.4585 | relative Gl mRNA level [1, 5]: 1.128 | GPx1 mRNA, mean ([1]; LIN28A-expressing HeLa, CPP-peptide, mean in t-test output, n = 3): 0.2385 | GPx1 mRNA, difference between means (C - B) ± SEM ([1]; LIN+P8 minus LIN+P1): -0.4015 ± 0.06473 | Gl mRNA, difference between means (C - B) ± SEM ([1]; LIN+P8 minus LIN+P1): -1.443 ± 0.3024 | DLK1 mRNA level, mean [2]: 56.31 | FRZB mRNA level, mean [2]: 8.725 | GLI2 mRNA level, mean [2]: 0.6516 | MAPK7 mRNA level, mean [2]: 0.7487 | NANOG mRNA level, mean [2]: 0.4762 | NNAT mRNA level, mean [2]: 3.136 | PDZD4 mRNA level, mean [2]: 0.2348 | POU5F1 mRNA level, mean [2]: 0.5449 | SERPINB9 mRNA level, mean [2]: 0.7287 | SIX3 mRNA level, mean [2]: 16.62 | SLC7A5 mRNA level, mean [2]: 0.3065 | SNAP25 mRNA level, mean [2]: 0.3657 | SOX2 mRNA level, mean [2]: 1.107 | TRMT61A mRNA level, mean [2]: 0.5794 | WLS mRNA level, mean [2]: 7.117 | DLK1, difference between means ± SEM vs. P1 [2, 6]: 55.31 ± 2.539 | FRZB, difference between means ± SEM vs. P1 [2, 6]: 7.724 ± 0.7174 | GLI2, difference between means ± SEM vs. P1 [2, 6]: -0.3484 ± 0.08883 | MAPK7, difference between means ± SEM vs. P1 [2, 6]: -0.2513 ± 0.07831 | NANOG, difference between means ± SEM vs. P1 [2, 6]: -0.5239 ± 0.0638 | NNAT, difference between means ± SEM vs. P1 [2, 6]: 2.136 ± 0.5570 | PDZD4, difference between means ± SEM vs. P1 [2, 6]: -0.7652 ± 0.01959 | POU5F1, difference between means ± SEM vs. P1 [2, 6]: -0.4552 ± 0.05944 | SERPINB9, difference between means ± SEM vs. P1 [2, 6]: -0.2711 ± 0.04259 | SIX3, difference between means ± SEM vs. P1 [2, 6]: 15.62 ± 1.865 | SLC7A5, difference between means ± SEM vs. P1 [2, 6]: -0.6935 ± 0.02913 | SNAP25, difference between means ± SEM vs. P1 [2, 6]: -0.6344 ± 0.08552 | SOX2, difference between means ± SEM vs. P1 [2, 6]: 0.1072 ± 0.1176 | TRMT61A, difference between means ± SEM vs. P1 [2, 6]: -0.4206 ± 0.05922 | WLS, difference between means ± SEM vs. P1 [2, 6]: 6.117 ± 0.3119

N-MPELQKLQQLKDE-C [P2, peptide derived from the UPF1 (419–700) domain]
NNAT mRNA level, mean [2]: 0.9363 | SERPINB9 mRNA level, mean [2]: 0.9791 | FRZB, difference between means ± SEM vs. P1 [2, 6]: -0.02698 ± 0.06622 | GLI2, difference between means ± SEM vs. P1 [2, 6]: -0.05239 ± 0.08994 | MAPK7, difference between means ± SEM vs. P1 [2, 6]: 0.03902 ± 0.06368 | NNAT, difference between means ± SEM vs. P1 [2, 6]: -0.06363 ± 0.1386 | PDZD4, difference between means ± SEM vs. P1 [2, 6]: 0.05466 ± 0.04504 | SERPINB9, difference between means ± SEM vs. P1 [2, 6]: -0.02067 ± 0.08291 | SIX3, difference between means ± SEM vs. P1 [2, 6]: 0.1242 ± 0.09936 | SLC7A5, difference between means ± SEM vs. P1 [2, 6]: 0.1166 ± 0.05272 | SNAP25, difference between means ± SEM vs. P1 [2, 6]: 0.01594 ± 0.05751 | SOX2, difference between means ± SEM vs. P1 [2, 6]: -0.1171 ± 0.06917 | TRMT61A, difference between means ± SEM vs. P1 [2, 6]: 0.0576 ± 0.08417 | WLS, difference between means ± SEM vs. P1 [2, 6]: -0.1429 ± 0.08376
